Counter-ions that a name gives are not always drawn.
Biological target: T1, protein farnesyltransferase (Rattus norvegicus, UniProt Q02293+Q04631)
T1 construct: The enzyme is purified according to Reiss, Y., et al., Cell, 62: 81-88 (1990), utilizing steps one through three; from tissue; host or cells: rat brain
Experiment: Inhibition of farnesyltransferase (scintillation proximity assay, rat brain enzyme, biotin-K Ras B fragment substrate)
Type: biochemical
Conditions: for % inhibition of farnesyltransferase at 1 × 10^-6 M / inhibition at 1 µM: 1 × 10^-6 M (Table 2); for inhibition at 0.01 µM: read-out: % inhibition at 0.01 μM (**), Table 6, ** = 0.01 μM (footnote), title prints 0.01 mM; for inhibition at 1 µM: read-out: % inhibition of farnesyltransferase at 1 × 10^-6 M
Outline: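 Enzyme from rat brain, partly purified (steps one to three), assayed by SPA kit using 0.1 mM final biotin-K Ras B peptide as prenyl acceptor rather than biotin-lamin. Activity given as percent inhibition.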

T1 sequence (Q02293 whole entry, one chain of several): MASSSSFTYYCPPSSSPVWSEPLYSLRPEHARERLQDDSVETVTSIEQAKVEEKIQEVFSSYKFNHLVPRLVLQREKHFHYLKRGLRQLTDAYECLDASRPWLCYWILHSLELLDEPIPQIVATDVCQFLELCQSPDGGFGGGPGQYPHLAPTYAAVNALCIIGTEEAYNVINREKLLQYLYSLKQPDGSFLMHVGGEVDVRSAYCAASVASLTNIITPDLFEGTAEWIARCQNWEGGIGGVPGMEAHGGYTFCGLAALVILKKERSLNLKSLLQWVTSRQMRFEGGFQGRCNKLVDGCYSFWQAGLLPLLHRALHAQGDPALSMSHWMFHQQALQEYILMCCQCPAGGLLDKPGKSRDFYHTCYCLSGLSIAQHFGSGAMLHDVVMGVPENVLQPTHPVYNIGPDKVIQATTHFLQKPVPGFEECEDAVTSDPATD

SMILES	% inhibition of farnesyltransferase at 1 × 10^-6 M [%]	inhibition at 1 µM [%]	other results
CSCC[C@H](NC(=O)c1ccc(CN(CCO)Cc2ccccc2)cc1-c1ccccc1)C(=O)O [Example 515]	72		
CSCC[C@H](NC(=O)c1ccc(CN2CCC[C@@H]2COCC2CCCCC2)cc1-c1ccccc1C)C(=O)O [Example 1119, N-[4-(2-cyclohexylmethoxymethylpyrrolidin-1-ylmethyl)-2-(2-methylphenyl)benzoyl]methionine]			inhibition at 0.01 µM: 84%
CSCC[C@H](NC(=O)c1ccc(/C=C/c2cccc3ccccc23)cc1-c1ccccc1C)C(=O)O [Example 466, N-[4-(2-naphth-1-ylethenyl)-2-(2-methylphenyl)benzoyl]methionine lithium salt]		93	
CSCC[C@H](NC(=O)c1ccc(COCc2ccc(-c3ccc(SC)cc3)o2)cc1-c1ccccc1C)C(=O)[O-].[Li+] [Example 447]			% inhibition of farnesyltransferase at 1 × 10^-7 M (1 × 10^-7 M (Table 3)): 91%
CSCC[C@H](NC(=O)c1ccc(CCc2ccc3ccccc3c2)cc1-c1ccccc1C)C(=O)O [Example 468, lithium salt]		96	
Cc1ccccc1-c1cc(CN(C(C)C)C(C)(C)CC2CCCCC2)ccc1C(=O)N[C@@H](CCS(C)(=O)=O)C(=O)O [Example 322]		98	
CSCC[C@H](NC(=O)c1ccc(COCc2cnc(-c3ccc(Cl)cc3)s2)cc1-c1ccccc1C)C(=O)[O-].[Li+] [Example 901]			% inhibition of farnesyltransferase at 1 × 10^-8 M (1 × 10^-8 M (Table 4)): 84%
CSCC[C@H](NC(=O)c1ccc(C/C(=C\c2cncs2)COc2cc(F)cc(F)c2)cc1-c1ccccc1C)C(=O)O [Example 1163, N-{4-[E-2-(3,5-diflourophenoxy)methyl-3-(thiazol-5-yl)prop-2-enyl]-2-(2-methylphenyl)benzoyl}methionine Lithium Salt]			inhibition at 0.01 µM: 73%
CSCC[C@H](NC(=O)c1ccc(OCCCC2CCCCC2)cc1-c1ccccc1C)C(=O)O [Example 564]	98		
CSCCC(NC(=O)c1ccc(CNC(CO)c2ccccc2)cc1-c1ccccc1)C(=O)O (stereo not shown) [Example 657]	32		

— patent US6221865A, “Inhibitors of protein isoprenyl transferases” (priority 1998, dated 2001)
